Legend:
Type in all cases: cell-based, human
[1] = tested on: SCC4 cells of head and neck cancer; assay: cells; conditions: Homo sapiens, SCC-4, dose 10 μg/ml, 48 h, positive control, read-out: proliferation inhibition rate
Procedure: (§1) After SCC4 cells of head and neck cancer, SW579 cells of thyroid cancer, A549 cells of lung cancer, TE13 cells of esophageal squamous cell carcinoma, MGC803 cells of stomach cancer, MDA-MB-231 cells of breast cancer, UOK262 cells of kidney cancer and A431 cells of skin cancer of human were cultured in a 37 DEG C. 5% CO2 incubator until the density was 90%, they were digested and collected by trypsin, the cells were re-suspended in a culture solution and counted under a microscope, the concentration of the cells was adjusted to 3.0×10^4 cells/mL, and the cell suspension was inoculated to 96-well plates, 100 μL per well, and cultured in a 37 DEG C. 5% CO2 incubator overnight. After the cells were completely adherent, different doses of micropeptides HMMW I to IX were added as drug groups, taxol was used as a positive control group, and the culture solution without any drug was used as a blank control group. They were diluted with the culture solution till predetermined concentrations. The diluted solutions were added to 96-well plates, respectively, 100 μL per well, and incubated in a 37 DEG C. 5% CO2 incubator for 48 h. 20 μL of 5 mg/mL MTT was added to each well of the 96-well plates, and the culture was continued for 4 h. The culture medium was sucked away, and 100 μL of DMSO was added to each well for dissolution. Absorbance was detected by ELIASA at detection wavelength 570 nm and reference wavelength 630 nm, and proliferation inhibition (PI) was calculated according to Formula PI (%)=1−drug group/negative group. The test was independently repeated three times. The results obtained from the test were expressed with mean±SD and statistical t test was done. *P<0.05 means significant difference, and **P<0.01 means very significant difference.

[2] = tested on: A431 cells of skin cancer; assay: cells; conditions: Homo sapiens, A-431, dose 10 μg/ml, 48 h, positive control, read-out: proliferation inhibition rate
Procedure: as §1

[3] = tested on: MGC803 cells of stomach cancer; assay: cells; conditions: Homo sapiens, MGC-803, dose 10 μg/ml, 48 h, positive control, read-out: proliferation inhibition rate
Procedure: as §1

[4] = tested on: MDA-MB-231 cells of breast cancer; assay: cells; conditions: Homo sapiens, dose 10 μg/ml, 48 h, positive control, read-out: proliferation inhibition rate
Procedure: as §1

[5] = tested on: TE13 cells of esophageal squamous cell carcinoma; assay: cells; conditions: Homo sapiens, dose 10 μg/ml, 48 h, positive control, read-out: proliferation inhibition rate
Procedure: as §1

[6] = tested on: UOK262 cells of kidney cancer; assay: cells; conditions: Homo sapiens, UOK 262, dose 10 μg/ml, 48 h, positive control, read-out: proliferation inhibition rate
Procedure: as §1

[7] = tested on: SW579 cells of thyroid cancer; assay: cells; conditions: Homo sapiens, dose 10 μg/ml, 48 h, positive control, read-out: proliferation inhibition rate
Procedure: as §1

[8] = tested on: A549 cells of lung cancer; assay: cells; conditions: Homo sapiens, dose 10 μg/ml, 48 h, positive control, read-out: proliferation inhibition rate
Procedure: as §1

[9] = tested on: SCC4 cells of head and neck cancer; assay: Matrigel transwell invasion test; conditions: dose 10 (unit not given), 24 h
Procedure: (§2) Dilute 10 mg/mL Matrigel with culture medium at 1:3, spread it on membranes of transwell cells and dry it in the air at room temperature. Use trypsin to digest and collect SCC4 cells of head and neck cancer, SW579 cells of thyroid cancer, A549 cells of lung cancer, TE13 cells of esophageal squamous cell carcinoma, MGC803 cells of stomach cancer, MDA-MB-231 cells of breast cancer, UOK262 cells of kidney cancer, and A431 cells of skin cancer of human, which were cultured to the logarithmic phase, wash with PBS twice and re-suspend with a blank culture medium. Adjust cell concentration to 1×10^5 cells/mL. Inoculate the cells to transwell cells, 100 μL per well, and meanwhile add micropeptides HMMW I to IX at different doses to every cell. Add 0.6 mL of complete medium containing 10% FBS to the transwell cells to stimulate cell invasion, and culture in 5% CO2 at 37 DEG C. for 24 h. Discard the medium in the wells, fix with 90% alcohol at room temperature for 30 min, stain with 0.1% crystal violet at room temperature for 10 min, rinse with clear water, gently wipe off the non-invaded cells in the upper layer with a cotton swab, observe under a microscope and select four fields of view to take pictures and count. Calculate the invasion inhibition rate (IIR) of the cells according to the following formula:
(§3) [formula] where Ntest is the number of invaded cells in the test groups (the groups at a dose of 1, 4 or 16 μM in the table), Ncontrol is the number of invaded cells in the blank control groups (the groups at a dose of 0 μM in the table). The test was repeated independently three times. Mean±SD was calculated based on the test results. Statistical t test was done. Value P was used to express statistical difference. The statistical significance of the results is a method for estimating how true the results are (the totality can be represented), *P<0.05 means significant difference, and **P<0.01 means very significant difference.

[10] = tested on: A431 cells of skin cancer; assay: Matrigel transwell invasion test; conditions: dose 10 (unit not given), 24 h
Procedure: as §2, §3

[11] = tested on: MGC803 cells of stomach cancer; assay: Matrigel transwell invasion test; conditions: dose 10 (unit not given), 24 h
Procedure: as §2, §3

[12] = tested on: MDA-MB-231 cells of breast cancer; assay: Matrigel transwell invasion test; conditions: dose 10 (unit not given), 24 h
Procedure: as §2, §3

[13] = tested on: TE13 cells of esophageal squamous cell carcinoma; assay: Matrigel transwell invasion test; conditions: dose 10 (unit not given), 24 h
Procedure: as §2, §3

[14] = tested on: UOK262 cells of kidney cancer; assay: Matrigel transwell invasion test; conditions: dose 10 (unit not given), 24 h
Procedure: as §2, §3

[15] = tested on: SW579 cells of thyroid cancer; assay: Matrigel transwell invasion test; conditions: dose 10 (unit not given), 24 h
Procedure: as §2, §3

[16] = tested on: A549 cells of lung cancer; assay: Matrigel transwell invasion test; conditions: dose 10 (unit not given), 24 h
Procedure: as §2, §3

[17] = tested on: SCC4 cells of head and neck cancer; assay: transwell migration test; conditions: dose 10 (μM), 24 h
Procedure: (§4) Inoculate SCC4 cells of head and neck cancer, SW579 cells of thyroid cancer, A549 cells of lung cancer, TE13 cells of esophageal squamous cell carcinoma, MGC803 cells of stomach cancer, MDA-MB-231 cells of breast cancer, UOK262 cells of kidney cancer, and A431 cells of skin cancer of human to transwell cells, 100 μL per well, and meanwhile add micropeptides HMMW I to IX at different doses to every cell. Add 0.6 mL of complete medium containing 10% FBS to the transwell cells to stimulate cell migration, and culture in 5% CO2 at 37 DEG C. for 24 h. Discard the medium in the wells, fix with 90% alcohol at room temperature for 30 min, stain with 0.1% crystal violet at room temperature for 10 min, rinse with clear water, gently wipe off the non-migrated cells in the upper layer with a cotton swab, observe under a microscope and select four fields of view to take pictures and count. Calculate the migration inhibition rate (MIR) of the cells according to the following formula: […]
(§5) The test was repeated independently three times. Mean±SD was calculated based on the test results. Statistical t test was done. Here, “the test was repeated independently three times” means that every dose of any type of cells was tested repeatedly three times, and then the above formula was used to calculate the number of migrated cells (Mean±SD). Value P was used to express statistical difference. The statistical significance of the results is a method for estimating how true the results are (the totality can be represented), *P<0.05 means significant difference, and **P<0.01 means very significant difference.

[18] = tested on: A431 cells of skin cancer; assay: transwell migration test; conditions: dose 10 (μM), 24 h
Procedure: as §4, §5

[19] = tested on: MGC803 cells of stomach cancer; assay: transwell migration test; conditions: 24 h
Procedure: as §4, §5

[20] = tested on: MDA-MB-231 cells of breast cancer; assay: transwell migration test; conditions: dose 10 (μM), 24 h
Procedure: as §4, §5

[21] = tested on: TE13 cells of esophageal squamous cell carcinoma; assay: transwell migration test; conditions: dose 10 (μM), 24 h
Procedure: as §4, §5

[22] = tested on: UOK262 cells of kidney cancer; assay: transwell migration test; conditions: dose 10 (μM), 24 h
Procedure: as §4, §5

[23] = tested on: SW579 cells of thyroid cancer; assay: transwell migration test; conditions: dose 10 (μM), 24 h
Procedure: as §4, §5

[24] = tested on: A549 cells of lung cancer; assay: transwell migration test; conditions: dose 10 (μM), 24 h
Procedure: as §4, §5

CC(=O)O[C@H]1C(=O)[C@@]2(C)[C@H]([C@H](OC(=O)c3ccccc3)[C@]3(O)C[C@H](OC(=O)[C@H](O)[C@@H](NC(=O)c4ccccc4)c4ccccc4)C(C)=C1C3(C)C)[C@]1(OC(C)=O)CO[C@@H]1C[C@@H]2O [Taxol, taxol, reference compound]
inhibition at 10 µg/mL [1]: 87%
inhibition at 10 µg/mL [2]: 85.2%
inhibition at 10 µg/mL [3]: 81.3%
inhibition at 10 µg/mL [4]: 83.9%
inhibition at 10 µg/mL [5]: 79.2%
inhibition at 10 µg/mL [6]: 83.9%
inhibition at 10 µg/mL [7]: 82.8%
inhibition at 10 µg/mL [8]: 84.3%

Avastin: comparison group in the migration and invasion tables; not described in the text [reference compound]
invasion inhibition rate [9]: 68.41%
invasion inhibition rate [10]: 70.39%
invasion inhibition rate [11]: 63.48%
invasion inhibition rate [12]: 70.03%
invasion inhibition rate [13]: 69.31%
invasion inhibition rate [14]: 72.16%
invasion inhibition rate [15]: 67.40%
invasion inhibition rate [16]: 61.35%
migration inhibition rate [17]: 68.64%
migration inhibition rate [18]: 64.63%
migration inhibition rate [19]: 71.25%
migration inhibition rate [20]: 62.19%
migration inhibition rate [21]: 58.19%
migration inhibition rate [22]: 61.39%
migration inhibition rate [23]: 59.81%
migration inhibition rate [24]: 66.21%

From patent publication US12565522B2, “Micropeptide HMMW and application thereof” (NANJING ANJI BIOTECHNOLOGY CO., LTD., priority 2019, dated 2026)
